Test results from ChEMBL document CHEMBL4049384, “Synthesis and evaluation of an injectable everolimus prodrug” (Bioorg Med Chem Lett, 2017).
≈ marks a conversion by molar mass, not a printed value.

What was measured:
Mus musculus [1] = assay: Toxicity in nude mouse xenografted with human OS-RC-2 cells assessed as body weight loss at 6 mg/kg administered three times a week through oral gavage measured on day 5 (reference value: 1.9%); format: organism-based; conditions: in vivo
Mus musculus [2] = assay: Toxicity in nude mouse xenografted with human OS-RC2 cells assessed as body weight loss at 6 mg/kg administered three times a week through oral gavage and measured on Day 12 (reference value: 15 %); format: organism-based; conditions: in vivo
MDA-MB-435 = assay: Antiproliferative activity against human MDA-MB-435 cells after 48 hrs by MTT assay; format: functional, cell-based; conditions: MDA-MB-435, 48 h
Mus musculus [3] = assay: Toxicity in nude mouse xenografted with human OS-RC2 cells assessed as body weight loss at 6 mg/kg administered three times a week through oral gavage and measured on Day 19 (reference value: 23.1 %); format: organism-based; conditions: in vivo
[4] = AUC (0 to t) in Sprague-Dawley rat at 10 mg/kg, po; format: ADME, organism-based; conditions: in vivo
OS-RC-2 [5] = assay: Antitumor activity against human OS-RC2 cells xenografted in nude mouse assessed as tumor volume at 6 mg/kg administered three times a week through oral gavage measured on day 1 (reference value: 167.51 +/- 17.09 mm3); format: functional
[6] = Cmax in Sprague-Dawley rat at 10 mg/kg, po; format: ADME, organism-based; set-up: dose 10 mg/kg, route oral; conditions: in vivo
DU-145 = assay: Antiproliferative activity against human DU145 cells after 48 hrs by MTT assay; format: functional, cell-based; conditions: DU-145, 48 h
OS-RC-2 [7] = assay: Antitumor activity against human OS-RC2 cells xenografted in nude mouse assessed as reduction in tumor volume at 6 mg/kg administered three times a week through oral gavage measured on day 26 relative to control; format: functional
NCI-H460 = assay: Antiproliferative activity against human NCI-H460 cells after 48 hrs by MTT assay; format: functional, cell-based; conditions: NCI-H460, 48 h
[8] = Drug uptake in Sprague-Dawley rat blood at 10 mg/kg, po after 2 hrs by HPLC method; format: ADME, organism-based; conditions: read-out: Drug uptake
Mus musculus [9] = assay: Toxicity in nude mouse xenografted with human OS-RC2 cells assessed as body weight loss at 6 mg/kg administered three times a week through oral gavage and measured on Day 29 (reference value: 31.2 %); format: organism-based; conditions: in vivo
HepG2 = assay: Antiproliferative activity against human HepG2 cells after 48 hrs by MTT assay; format: functional, cell-based; conditions: HepG2, 48 h
Mus musculus [10] = assay: Toxicity in nude mouse xenografted with human OS-RC2 cells assessed as body weight loss at 6 mg/kg administered three times a week through oral gavage and measured on day 15 (reference value: 20.2 %); format: organism-based; conditions: in vivo
[11] = Drug uptake in Sprague-Dawley rat blood at 10 mg/kg, po after 4 hrs by HPLC method; format: ADME, organism-based; conditions: read-out: Drug uptake
[12] = Drug uptake in Sprague-Dawley rat blood at 10 mg/kg, po after 6 hrs by HPLC method; format: ADME, organism-based; conditions: read-out: Drug uptake
[13] = Drug uptake in Sprague-Dawley rat blood at 10 mg/kg, po after 3 hrs by HPLC method; format: ADME, organism-based; conditions: read-out: Drug uptake
[14] = Half life in Sprague-Dawley rat at 10 mg/kg, po; format: ADME, organism-based; conditions: in vivo
Mus musculus [15] = assay: Toxicity in nude mouse xenografted with human OS-RC-2 cells assessed as death at 6 mg/kg administered three times a week through oral gavage after 32 days; format: organism-based; conditions: in vivo, 768 h
Mus musculus [16] = assay: Toxicity in nude mouse xenografted with human OS-RC-2 cells assessed as body weight at 6 mg/kg administered three times a week through oral gavage measured on day 1 (reference value: 20.4 +/- 0.33 g); format: organism-based; conditions: in vivo
Mus musculus [17] = assay: Toxicity in nude mouse xenografted with human OS-RC-2 cells assessed as body weight loss at 6 mg/kg administered three times a week through oral gavage measured after 32 days (reference value: 33%); format: organism-based; conditions: in vivo, 768 h
OS-RC-2 [18] = assay: Antitumor activity against human OS-RC2 cells xenografted in nude mouse assessed as reduction in tumor volume at 6 mg/kg administered three times a week through oral gavage measured on day 5 relative to control; format: functional
[19] = AUC (0 to infinity) in Sprague-Dawley rat at 10 mg/kg, po; format: ADME, organism-based; set-up: dose 10 mg/kg, route oral, time infinity; conditions: in vivo
OS-RC-2 [20] = assay: Antitumor activity against human OS-RC2 cells xenografted in nude mouse assessed as reduction in tumor volume at 6 mg/kg administered three times a week through oral gavage measured on day 32 relative to control; format: functional
[21] = Drug uptake in Sprague-Dawley rat blood at 10 mg/kg, po after 8 hrs by HPLC method; format: ADME, organism-based; conditions: read-out: Drug uptake
OS-RC-2 [22] = assay: Antitumor activity against human OS-RC2 cells xenografted in nude mouse assessed as tumor weight at 6 mg/kg administered three times a week through oral gavage measured after 32 days (reference value: 0.68 +/- 0.06 g); format: functional
OS-RC-2 [23] = assay: Antitumor activity against human OS-RC2 cells xenografted in nude mouse assessed as reduction in tumor volume at 6 mg/kg administered three times a week through oral gavage measured on day 8 relative to control; format: functional
Mus musculus [24] = assay: Toxicity in nude mouse xenografted with human OS-RC2 cells assessed as body weight loss at 6 mg/kg administered three times a week through oral gavage and measured on Day 22 (reference value: 23.1 %); format: organism-based; conditions: in vivo
OS-RC-2 [25] = assay: Antitumor activity against human OS-RC2 cells xenografted in nude mouse assessed as reduction in tumor volume at 6 mg/kg administered three times a week through oral gavage measured on day 29 relative to control; format: functional
[26] = Drug uptake in Sprague-Dawley rat blood at 10 mg/kg, po after 0.5 hrs by HPLC method; format: ADME, organism-based; conditions: read-out: Drug uptake
OS-RC-2 [27] = assay: Antitumor activity against human OS-RC2 cells xenografted in nude mouse assessed as reduction in tumor volume at 6 mg/kg administered three times a week through oral gavage measured on day 15 relative to control; format: functional
OS-RC-2 [28] = assay: Antitumor activity against human OS-RC2 cells xenografted in nude mouse assessed as reduction in tumor volume at 6 mg/kg administered three times a week through oral gavage measured on day 12 relative to control; format: functional
OS-RC-2 [29] = assay: Antitumor activity against human OS-RC2 cells xenografted in nude mouse assessed as reduction in tumor volume at 6 mg/kg administered three times a week through oral gavage measured on day 22 relative to control; format: functional
Mus musculus [30] = assay: Toxicity in nude mouse xenografted with human OS-RC2 cells assessed as body weight loss at 6 mg/kg administered three times a week through oral gavage and measured on Day 26 (reference value: 28.2 %); format: organism-based; conditions: in vivo
[31] = Drug uptake in Sprague-Dawley rat blood at 10 mg/kg, po after 1 hr by HPLC method; format: ADME, organism-based; conditions: read-out: Drug uptake
Mus musculus [32] = assay: Toxicity in nude mouse xenografted with human OS-RC2 cells assessed as body weight loss at 6 mg/kg administered three times a week through oral gavage and measured on Day 8 (reference value: 8.5 %); format: organism-based; conditions: in vivo
[33] = Tmax in Sprague-Dawley rat at 10 mg/kg, po; format: ADME, organism-based; conditions: in vivo
PC-3 = assay: Antiproliferative activity against human PC3 cells after 48 hrs by MTT assay; format: functional, cell-based; conditions: PC-3, 48 h
[34] = Drug uptake in Sprague-Dawley rat blood at 10 mg/kg, po after 1.5 hrs by HPLC method; format: ADME, organism-based; conditions: read-out: Drug uptake
[35] = Drug uptake in Sprague-Dawley rat blood at 10 mg/kg, po after 0.25 hrs by HPLC method; format: ADME, organism-based; conditions: read-out: Drug uptake
[36] = Solubility of the compound in water; format: physicochemical
[37] = Drug uptake in Sprague-Dawley rat blood at 10 mg/kg, po after 24 hrs by HPLC method; format: ADME, organism-based; conditions: read-out: Drug uptake
OS-RC-2 [38] = assay: Antitumor activity against human OS-RC2 cells xenografted in nude mouse assessed as tumor growth inhibition at 6 mg/kg administered three times a week through oral gavage measured after 32 days relative to control; format: functional; conditions: OS-RC-2, po, 768 h, read-out: TGI
OS-RC-2 [39] = assay: Antitumor activity against human OS-RC2 cells xenografted in nude mouse assessed as reduction in tumor volume at 6 mg/kg administered three times a week through oral gavage measured on day 19 relative to control; format: functional

With `CO[C@H]1C[C@@H]2CC[C@@H](C)[C@@](O)(O2)C(=O)C(=O)N2CCCC[C@H]2C(=O)O[C@H]([C@H](C)C[C@@H]2CC[C@@H](OCCO)[C@H](OC)C2)CC(=O)[C@H](C)/C=C(\C)[C@@H](O)[C@@H](OC)C(=O)[C@H](C)C[C@H](C)\C=C/C=C/C=C/1C` as the molecule, how does the Activity (Mus musculus [1]) read?
The Activity was 2.7%.

And the Activity (Mus musculus [2])?
Its Activity is 8.2%.

What about the IC50 (MDA-MB-435) of the same molecule?
Its IC50 is 62.5 µM.

What about the Activity (Mus musculus [3]) of the same molecule?
Its Activity is 9.7%.

What about the AUC(0-t) [4] of the same molecule?
Its AUC(0-t) is 454 ng·h/mL.

And the Activity (OS-RC-2 [5])?
Its Activity is 167.38 mm3.

And the Cmax [6]?
Its Cmax is 126 ng/mL.

And the IC50 (DU-145)?
Its IC50 is 57.3 µM.

And the T/C (OS-RC-2 [7])?
Its T/C is 0.71%.

What about the IC50 (NCI-H460) of the same molecule?
Its IC50 is 99.8 µM.

What about the concentration at 2 h [8] of the same molecule?
The concentration at 2 h was 69.7 ng/mL.

What about the Activity (Mus musculus [9]) of the same molecule?
The Activity was 10.5%.

What about the IC50 (HepG2) of the same molecule?
The IC50 was 52.3 µM.

And the Activity (Mus musculus [10])?
The Activity was 8.7%.

What about the concentration at 4 h [11] of the same molecule?
The concentration at 4 h was 61.4 ng/mL.

And the concentration at 6 h [12]?
The concentration at 6 h was 32.4 ng/mL.

What about the concentration at 3 h [13] of the same molecule?
Its concentration at 3 h is 64.3 ng/mL.

And the half-life [14]?
Its half-life is 2.2 h.

What about the Activity (Mus musculus [15]) of the same molecule?
Its Activity is “Non-Toxic”.

What about the Activity (Mus musculus [16]) of the same molecule?
Its Activity is 20.94 g.

And the Activity (Mus musculus [17])?
The Activity was 11.7%.

What about the T/C (OS-RC-2 [18]) of the same molecule?
The T/C was 79%.

What about the AUC(0-inf) [19] of the same molecule?
Its AUC(0-inf) is 454 ng·h/mL.

And the T/C (OS-RC-2 [20])?
The T/C was 0.77%.

What about the concentration at 8 h [21] of the same molecule?
The concentration at 8 h was 16.3 ng/mL.

And the Activity (OS-RC-2 [22])?
Its Activity is 0.4 g.

What about the T/C (OS-RC-2 [23]) of the same molecule?
Its T/C is 76%.

And the Activity (Mus musculus [24])?
The Activity was 9.7%.

What about the T/C (OS-RC-2 [25]) of the same molecule?
Its T/C is 0.72%.

And the concentration at 0.5 h [26]?
Its concentration at 0.5 h is 100 ng/mL.

What about the T/C (OS-RC-2 [27]) of the same molecule?
Its T/C is 0.66%.

And the T/C (OS-RC-2 [28])?
Its T/C is 0.72%.

What about the T/C (OS-RC-2 [29]) of the same molecule?
Its T/C is 0.69%.

What about the Activity (Mus musculus [30]) of the same molecule?
The Activity was 9.1%.

And the concentration at 1 h [31]?
The concentration at 1 h was 99.2 ng/mL.

And the Activity (Mus musculus [32])?
Its Activity is 3.1%.

And the Tmax [33]?
Its Tmax is 1.91 h.

What about the IC50 (PC-3) of the same molecule?
The IC50 was 30.2 µM.

What about the concentration at 1.5 h [34] of the same molecule?
The concentration at 1.5 h was 90.4 ng/mL.

And the concentration at 0.25 h [35]?
Its concentration at 0.25 h is 17.4 ng/mL.

What about the solubility [36] of the same molecule?
The solubility was 1 µg/mL (≈ 1.04 µM).

And the concentration at 24 h [37]?
The concentration at 24 h was 2.28 ng/mL.

And the inhibition in vivo at 6 mg/kg (OS-RC-2 [38])?
The inhibition in vivo at 6 mg/kg was 41.1%.

And the T/C (OS-RC-2 [39])?
Its T/C is 0.71%.
